Results published in US4837239A, “Cardiotonic phosphodiesterase inhibitors complexed with water soluble vitamins” (Syntex (U.S.A.) Inc., priority 1986, dated 1989).
≈ marks a conversion by molar mass, not a printed value.

Assays:
Format in all cases: physicochemical
[1] = Solution-phase stability / shelf life (kinetic studies)
Excerpt: A significant advantage of the lyophilization procedure of the present invention is that it provides for an extended shelf life as compared to that of the class of ocyalkylamides or even their vitamin complexes in solution. For example, the shelf life of a solution of the ascorbic acid complex of N-cyclohexyl-N-methyl-4-(2-oxo-1,2,3,5-tetrahydro-imidazo-[2,1-b]quinazolin-7-yl) oxybutyramide is only about 5 days. The lyophilized product prepared according to the formulation method of the present invention can be expected to permit a shelf life of at least two years.
The reason for the generally brief shelf lives in solution is that the class of oxyalkylamides has limited solution-phase stability. […] At pH 2, at which the compound is formulated, shelf life (T90) is less than a week. In a concentrated form in neat dimethylacetamide, polyethylene glycol or the like, the T90 is only about three weeks.

[2] = Water solubility after complexation with ascorbic acid and lyophilization
Experimental: (§1) The improvement in solubility in the presence of water-solublevitamins is specifically illustrated by FIGS. 1 and 2. […] The solubility is still further enhanced by the lyophilization process of the present invention. For example, if the lyophilization procedure described below is followed, N-cyclohexyl-N-methyl-4-(2-oxo-1,2,3,5-tetrahydroimidazo-[2,1-b]quinazolin-7-yl)oxybutyramide is water-soluble to the extent of about 5,000 μg/ml at pH2 using 10% ascorbic acid (See FIG. 5).
6.5 grams of the sulfate salt of N-cyclohexyl-N-methyl-4-(2-oxo-1,2,3,5-tetrahydroimidazo[2,1-b]quinazolin- 7-yl)oxyburyamide were dissolved, along with 100 grams of ascorbic acid, 500 ml of tert-butyl alcohol, sufficient sulfuric acid to adjust the pH to 2.0, and sufficient water to bring the volume to 1 liter. The solution was stirred at room temperature for about 10 minutes and filtered with a 0.22 micron Milipore™ cellulose filter. 5 Milliliters of the solution were then dispensed into a 10 ml vial for lyophilization. In the lyophilization procedure, the condenser temperature was initially set to give a shelf temperature of -60° C., and the pressure was initially atmospheric. After the product had frozen, the pressure was gradually dropped to 10 milliTorr, and the vacuum was held for about a day. […]

[3] = Solid state stability in lyophilized powders at accelerated temperature and various states of humidity; settings: for Appearance (Color): after 7 days
Experimental: Accordingly, in order to maximize the stability of such a compound for parenteral administration therapy, the present inventors have developed a lyophilization procedure. The lyophilization substantially removes water: the primary nucleophile responsible for the degradative hydrolysis of the compound in solution.
^a Made from 2 mL of tBuOH/AA/H2 O (50/10/40) with pH = 2.0 and
N--cyclohexylN--methyl4-(2-oxo-1,2,3,5-tetrahydroimidazo-2,1-bquinazolin-
-yl)oxybutyramide 130 mL
^b Capped means: not stored in the desiccator with the vial sealed.
47% RH capped and 47% RH holes mean: stored in a 47% relatively humidity
desiccator with the vial capped or covered with aluminum foil with 4 hole
in the foil respectively.
6.5 grams of the sulfate salt of N-cyclohexyl-N-methyl-4-(2-oxo-1,2,3,5-tetrahydroimidazo[2,1-b]quinazolin- 7-yl)oxyburyamide were dissolved, along with 100 grams of ascorbic acid, 500 ml of tert-butyl alcohol, sufficient sulfuric acid to adjust the pH to 2.0, and sufficient water to bring the volume to 1 liter. The solution was stirred at room temperature for about 10 minutes and filtered with a 0.22 micron Milipore™ cellulose filter. 5 Milliliters of the solution were then dispensed into a 10 ml vial for lyophilization. In the lyophilization procedure, the condenser temperature was initially set to give a shelf temperature of -60° C., and the pressure was initially atmospheric. After the product had frozen, the pressure was gradually dropped to 10 milliTorr, and the vacuum was held for about a day. Still under vacuum, the shelf temperature was slowly raised by incrementally increasing the temperature to the following values for about 6 hours at each value: -40° C., -20° C.; -10° C.; 0° C.; and 15°-25° C. During this lyophilization process, all the butanol and water were removed. The final lyophilized powder comprised 32.5 milligrams of N-cyclohexyl-N-methyl-4-(2-oxo-1,2,3,5-tetrahydroimidazo-[2,1-b]quinazolin-7-yl)oxybutyramide sulfate salt and 500 milligrams of ascorbic acid, some residual water (4% w/w) and tert-butyl alcohol (3% w/w) per vial.

[4] = Electrochemical titration of excess ascorbic acid with the drug (FIGS. 4a and 4b); settings: titration of excess ascorbic acid with hydrogen sulfate salt, in solution
Excerpt: (§2) The present inventors have discovered that the compounds of Formula (I) form water-soluble complexes with water-soluble vitamins such as ascorbic acid, nicotinamide thiamine and pyridoxine. The phenomenon of complex formation can be confirmed by phase solubility experiments (FIGS. 1 and 2), and by spectral shifts and changes in electrochemical responses of the vitamins in the presence of these compounds (FIGS. 4a and 4b). For example, FIGS. 4a and 4b show the results of a titration of excess ascorbic acid with the hydrogen sulfate salt of N-cyclohexyl-N-methyl-4-(2-oxo-1,2,3,5-tetrahydroimidazo-[2,1-b]quinazolin-7-yl)oxybutyramide. It is hypothesized that the relatively planar tricyclic structure of the compound and the presence of non-bonding electrons on ring heteroatoms renders the compound capable of charge donation to suitable acceptors. In addition, the compound may also function as a charge acceptor due to the presence of a formal positive charge on a ring nitrogen at low pH (i.e., due to the presence of the planar cyclic cationic portion of the compound). Thus, the interaction with the water-soluble vitamin may be defined in terms of the existence of a charge transfer complex, resulting in enhanced water-solubility. […] The decrease in current is due to a lower diffusion coefficient of the complex.

[5] = Water solubility (phase solubility experiments) with and without water-soluble vitamin; settings: for solubility: pH 2, read-out: water solubility (free base equivalent)
Excerpt: as §2, §1

[6] = 40 °C., 47% RH capped (first line)
[7] = 40 °C., 47% RH capped (second line)

T90 ([1]; concentrated form in neat dimethylacetamide, polyethylene glycol or the like): about three | pH of maximum stability ([1]; in solution): ~6 | estimation shelf life in solution ([1]; in solution, about pH 6): six | shelf life (T90) ([1]; in solution, pH 2): less than a week | degradation catalysis ([1]; kinetic studies in solution): both acid and base catalyzed | solubility ([2]; complexation with a water soluble vitamin and lyophilization (FIG. 5)): enhancement of solubility | solubility ([2]; pH 2, pH2, 10% ascorbic acid, lyophilized (FIG. 5), read-out: water solubility after lyophilization procedure): ~5000 µg/mL (≈ 13 mM) | % Remaining, 7 days ([3]; 5 °C., Capped): 99.2% | Appearance (Color) ([3]; 5 °C., Capped): White | % Remaining, 7 days ([3]; 25 °C., 47% RH capped): 100% | % Remaining, 36 days ([3]; 25 °C., 47% RH capped): 100% | Appearance (Color) ([3]; 25 °C., 47% RH capped): White | % Remaining, 7 days ([3]; 25 °C., Capped): 100% | % Remaining, 36 days ([3]; 25 °C., Capped): 99.7% | Appearance (Color) ([3]; 25 °C., Capped): White | % Remaining, 7 days [3, 6]: 100% | % Remaining, 36 days [3, 6]: 96.7% | Appearance (Color) [3, 6]: Light yellow | % Remaining, 5 days ([3]; 40 °C., 47% RH capped (second line), 5 days): 99.2% | % Remaining, 7 days [3, 7]: 99.2% | % Remaining, 36 days [3, 7]: 94.5% | Appearance (Color) [3, 7]: Light yellow | % Remaining, 7 days ([3]; 40 °C., Capped): 100% | % Remaining, 36 days ([3]; 40 °C., Capped): 94.4% | Appearance (Color) ([3]; 40 °C., Capped): Light yellow | % Remaining, 7 days ([3]; RT, 47% RH holes): 100% | % Remaining, 36 days ([3]; RT, 47% RH holes): 100% | Appearance (Color) ([3]; RT, 47% RH holes): White | water solubility ([5]; in the presence of water soluble vitamins, and ethanol and propylene glycol (FIG. 2)): improved water solubility | water solubility ([5]; in the presence of water-soluble vitamins (FIG. 1)): improved water solubility | solubility ([5]; pH2, absence of water-soluble vitamin): ~120 µg/mL | solubility ([5]; water with 10% ascorbic acid, pH2, in the presence of 10% (about 0.6M) ascorbic acid): ~420 µg/mL
SMILES: CN(C(=O)CCCOc1ccc2c(c1)CN1CC(=O)NC1=N2)C1CCCCC1 [N-cyclohexyl-N-methyl-4-(2-oxo-1,2,3,5-tetrahydroimidazo-[2,1-b]quinazolin-7-yl)oxybutyramide]
electrochemical response of ascorbic acid [4]: a shift in the peak potential and a reduction of the peak current of ascorbic acid
